Test results published in US10392383B2, “3-(1H-benzo[d]imidazol-2-yl)-1H-pyrazolo[4,3-b]pyridines and therapeutic uses thereof” (Samumed, LLC, priority 2015, dated 2019).

How the values were obtained:
Assay type in all cases: cell-based
[1] = system: primary human fibroblasts derived from IPF patients (LL29 cells) treated with TGF-β1; test: Inhibition of the fibrotic process: αSMA staining in TGF-β1-treated LL29 fibroblasts; conditions: Fibroblast; for EC50: 96 h, LL29 fibroblasts treated with TGF-β1 (20 ng/mL), 4 days, Table 4; for inhibition at 10 µM: LL29 fibroblasts treated with TGF-β1, Table 4, read-out: percent inhibition at 10 μM (given in parentheses for EC50 >10 μM)
Procedure, shortened: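 IPF-derived LL29 fibroblasts in F12 with 1% FBS dosed with compound (11-point, 10 μM to 1.87 nM, 0.1% DMSO), then 20 ng/mL TGF-β1 after 1 h, and cultured 4 days at 37 °C. αSMA-positive cell fraction imaged after excluding SYTOX-positive cells, normalized to TGF-β1/DMSO wells; EC50 by non-linear regression, % inhibition at 10 μM if EC50 >10 μM.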

SW480 colon cancer cells = test: Cell viability assay (CellTiter-Blue) in SW480 cells; conditions: Homo sapiens, 96 h, four days, CellTiter-Blue, 10 μM to 0.0045 μM
Procedure, shortened: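 SW480 cells (~2×10^3 per well) were exposed to compound for four days at 37 °C/5% CO2, using 8-point 1:3 dilutions from 10 μM to 0.0045 μM in duplicate. Viability was read by resazurin reduction (CellTiter-Blue, ~3 h, Ex 560/Em 590 nm). EC50 came from non-linear regression; above 10 μM, percent inhibition at 10 μM is given.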

[2] = system: Wnt activity (Sp5-Luc reporter, Wnt-responsive promoter) in SW480 colon carcinoma cells; test: Wnt activity screening assay: Sp5-Luc reporter gene assay in SW480 cells; conditions: Homo sapiens, overnight incubation, 10-point curve starting from 10 μM
Procedure, shortened: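 Luminescence read-out (BrightGlo) from stable Sp5-Luc SW480 cells, normalized to DMSO-only wells. Cells were treated overnight at 37° C in 1% FBS medium across a 1:3, 10-point series starting at 10 μM. EC50 from variable-slope four-parameter regression; percent inhibition at 10 μM given where EC50 >10 μM.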

Row | SMILES | EC50 [1] | EC50 (SW480 colon cancer cells) | EC50 [2] | inhibition at 10 µM [1]
1 | CN(C)c1cncc(-c2ccc3[nH]nc(-c4nc5c(-c6cccs6)cccc5[nH]4)c3n2)c1 [Compound 343, N,N-Dimethyl-5-(3-(4-(thiophen-2-yl)-1H-benzo[d]imidazol-2-yl)-1H-pyrazolo[4,3-b]pyridin-5-yl)pyridin-3-amine] | 1180 nM | 2360 nM | 1720 nM | 
2 | CN(C)Cc1cncc(-c2ccc3[nH]nc(-c4nc5c(-c6cccs6)cccc5[nH]4)c3n2)c1 [Compound 349, N,N-dimethyl-1-(5-(3-(4-(thiophen-2-yl)-1H-benzo[d]imidazol-2-yl)-1H-pyrazolo[4,3-b]pyridin-5-yl)pyridin-3-yl)methanamine] | 2500 nM | 2890 nM | 4100 nM | 
3 | c1csc(-c2cccc3[nH]c(-c4n[nH]c5ccc(-c6ccncc6)nc45)nc23)c1 [Compound 354, 5-(Pyridin-4-yl)-3-(4-(thiophen-2-yl)-1H-benzo[d]imidazol-2-yl)-1H-pyrazolo[4,3-b]pyridine] | > 10000 nM | 2800 nM | 3770 nM | 31.2%
4 | O=C(Nc1cncc(-c2ccc3[nH]nc(-c4nc5c(-c6cccs6)cccc5[nH]4)c3n2)c1)C1CC1 [Compound 356, N-(5-(3-(4-(Thiophen-2-yl)-1H-benzo[d]imidazol-2-yl)-1H-pyrazolo[4,3-b]pyridin-5-yl)pyridin-3-yl)cyclopropanecarboxamide] | > 10000 nM | 3750 nM | 3380 nM | 0%
5 | Cc1ccc(-c2cccc3[nH]c(-c4n[nH]c5ccc(-c6cncc(N)c6)nc45)nc23)s1 [Compound 395, 5-(3-(4-(5-Methylthiophen-2-yl)-1H-benzo[d]imidazol-2-yl)-1H-pyrazolo [4,3-b]pyridin-5-yl)pyridin-3-amine] | 186 nM | 320 nM | 78 nM | 
6 | Cc1ccc(-c2cccc3[nH]c(-c4n[nH]c5ccc(-c6cncc(NC(=O)C(C)C)c6)nc45)nc23)s1 [Compound 401, N-(5-(3-(4-(5-Methylthiophen-2-yl)-1H-benzo[d]imidazol-2-yl)-1H-pyrazolo [4,3-b]pyridin-5-yl)pyridin-3-yl)isobutyramide] | 673 nM | 3830 nM | 3130 nM | 
7 | CCNCc1cncc(-c2ccc3[nH]nc(-c4nc5c(-c6cc(F)cc(NCCN(C)C)c6)cccc5[nH]4)c3n2)c1 [Compound 454, N^1-(3-(2-(5-(5-((Ethylamino)methyl)pyridin-3-yl)-1H-pyrazolo[4,3-b]pyridin-3-yl)-1H-benzo[d]imidazol-4-yl)-5-fluorophenyl)-N^2,N^2-dimethylethane-1,2-diamine] | 2400 nM | 1480 nM | 3370 nM | 
8 | CC(C)Nc1cncc(-c2ccc3[nH]nc(-c4nc5c(-c6cc(F)cc(NCCN(C)C)c6)cccc5[nH]4)c3n2)c1 [Compound 460, N^1-(3-Fluoro-5-(2-(5-(5-(isopropylamino)pyridin-3-yl)-1H-pyrazolo[4,3-b]pyridin-3-yl)-1H-benzo[d]imidazol-4-yl)phenyl)-N^2,N^2-dimethylethane-1,2-diamine] | 1440 nM | 508 nM | 1050 nM | 
9 | CCCCC(=O)Nc1cncc(-c2ccc3[nH]nc(-c4nc5c(-c6cc(F)cc(NCCN(C)C)c6)cccc5[nH]4)c3n2)c1 [Compound 467, N-(5-(3-(4-(3-((2-(Dimethylamino)ethyl)amino)-5-fluorophenyl)-1H-benzo [d]imidazol-2-yl)-1H-pyrazolo[4,3-b]pyridin-5-yl)pyridin-3-yl)pentanamide] | 1180 nM | 1100 nM | 1300 nM | 
10 | CN(C)CCNc1cc(F)cc(-c2cccc3[nH]c(-c4n[nH]c5ccc(-c6cncc(CNCC7CCCC7)c6)nc45)nc23)c1 [Compound 473, N^1-(3-(2-(5-(5-(((Cyclopentylmethyl)amino)methyl)pyridin-3-yl)-1H-pyrazolo[4,3-b]pyridin-3-yl)-1H-benzo[d]imidazol-4-yl)-5-fluorophenyl)-N^2,N^2-dimethylethane-1,2-diamine] | 1450 nM | 2740 nM | 2820 nM | 
